Assay results published in EP0976754B1, “REMEDIES/PREVENTIVES FOR RESPIRATORY DISEASES” (POLA CHEMICAL INDUSTRIES, INC., priority 1997, dated 1998).

Each molecule was assayed on trachea (assay: Tracheodilative effect (in vitro), Magnus method, trachea strips contracted with histamine). Settings: Cavia porcellus; relaxation of guinea pig trachea strips contracted with 3 x 10^-6 M histamine; maximum relaxation by 10^-4 M isoproterenol = 100%; read-out: pIC50 value Histamine (converted).
Procedure: (§1) With respect to Compound 2, Compound 5, Compound 6, Compound 7 and Compound 16, the tracheodilative effect useful in treatment and/or prevention of respiratory diseases such as asthma was investigated by the Magnus method. A male Hartley albino guinea pig (250 to 300 g) was blow on the head and exsanguinated to death to enucleate its trachea. Strip specimens were prepared from the trachea. Each of the specimens was suspended in a Magnus tube filled with a Krebs-Henseleit solution kept at 37°C with supply of a mixed gas (95% O2, 5% CO2). A static tension of 1.0 g was loaded to record an isometric tension. Each of test compounds was cumulatively administered to the specimens separately contracted with 1 x 10^-6 M carbachol and 3 x 10^-6 M histamine to investigate its relaxing effect. After the cumulative administration, 10^-4 M isoproterenol was administered to identify the maximum relaxing effect on the trachea specimen. The maximum relaxation was regarded as 100%, and a negative logarithmic value of the concentration of the test compound, at which the specimen was relaxed by 50%, was calculated out, thereby regarding it as a pIC50 value. […]

Row | SMILES | IC50
1 | CCC(C)N1CCc2c(N)nc3c(C#N)cnn3c21 (stereo not shown) [Compound 7, 5-amino-8-sec-butyl-3-cyano-6,7-dihydro-8H-pyrrolo[3,2-e]pyrazolo[1,5-a]pyrimidine] | 15.5 µM
2 | N#Cc1cnn2c3c(c(N)nc12)CCN3C1CCCC1 [Compound 5, 5-amino-3-cyano-8-cyclopentyl-6,7-dihydro-8H-pyrrolo[3,2-e]pyrazolo[1,5-a]pyrimidine] | 12.6 µM

The remaining lines, values ahead:

Row | IC50 | SMILES
3 | 6.31 µM | CCC(C)N1CCc2cnc3c(C#N)cnn3c21 (stereo not shown) [Compound 2, 8-sec-butyl-3-cyano-6,7-dihydro-8H-pyrrolo[3,2-e]pyrazolo[1,5-a]pyrimidine]
4 | 977 µM | Cn1c(=O)c2[nH]cnc2n(C)c1=O [Theophylline, theophylline, reference compound]
5 | 16.2 µM | CC(C)(C)N1CCc2c(N)nc3c(C#N)cnn3c21 [Compound 16, 5-amino-8-tert-butyl-3-cyano-6,7-dihydro-8H-pyrrolo[3,2-e]pyrazolo[1,5-a]pyrimidine]
6 | 16.2 µM | N#Cc1cnn2c3c(c(N)nc12)CCN3C1CCCCC1 [Compound 6, 5-amino-3-cyano-8-cyclohexyl-6,7-dihydro-8H-pyrrolo[3,2-e]pyrazolo[1,5-a]pyrimidine]

The molecules below were run on trachea (assay: Tracheodilative effect (in vitro), Magnus method, trachea strips contracted with carbachol). Settings: Cavia porcellus; relaxation of guinea pig trachea strips contracted with 1 x 10^-6 M carbachol; maximum relaxation by 10^-4 M isoproterenol = 100%; read-out: pIC50 value Carbachol (converted).
Procedure: as §1

Row | SMILES | IC50
7 | CCC(C)N1CCc2c(N)nc3c(C#N)cnn3c21 (stereo not shown) [Compound 7, 5-amino-8-sec-butyl-3-cyano-6,7-dihydro-8H-pyrrolo[3,2-e]pyrazolo[1,5-a]pyrimidine] | 18.2 µM
8 | N#Cc1cnn2c3c(c(N)nc12)CCN3C1CCCC1 [Compound 5, 5-amino-3-cyano-8-cyclopentyl-6,7-dihydro-8H-pyrrolo[3,2-e]pyrazolo[1,5-a]pyrimidine] | 18.6 µM

Further lines, results first:

Row | IC50 | SMILES
9 | 19.1 µM | CCC(C)N1CCc2cnc3c(C#N)cnn3c21 (stereo not shown) [Compound 2, 8-sec-butyl-3-cyano-6,7-dihydro-8H-pyrrolo[3,2-e]pyrazolo[1,5-a]pyrimidine]
10 | 2950 µM | Cn1c(=O)c2[nH]cnc2n(C)c1=O [Theophylline, theophylline, reference compound]
11 | 23.4 µM | CC(C)(C)N1CCc2c(N)nc3c(C#N)cnn3c21 [Compound 16, 5-amino-8-tert-butyl-3-cyano-6,7-dihydro-8H-pyrrolo[3,2-e]pyrazolo[1,5-a]pyrimidine]
12 | 22.4 µM | N#Cc1cnn2c3c(c(N)nc12)CCN3C1CCCCC1 [Compound 6, 5-amino-3-cyano-8-cyclohexyl-6,7-dihydro-8H-pyrrolo[3,2-e]pyrazolo[1,5-a]pyrimidine]

What follows are molecules tested on airway-constriction reaction (assay: Inhibitory effect on airway-constriction reaction (in vivo), modified Konzet-Lössler method, histamine-elicited). Settings: Cavia porcellus, iv; test compound 100 mg/2 ml/kg in 1% CMC through esophageal cannula; histamine 20 µg/kg i.v. at 15, 30, 60 and 120 minutes; anesthetized guinea pigs; read-out: Inhibitory rate (%) Histamine.
Procedure: (§2) A group of 6 male Hartley albino guinea pigs (250 to 350 g) was anesthetized with pentobarbital, and the tracheae, esophagi, carotid arteries and jugular veins thereof were cannulated. The experiment was performed by connecting the tracheotomic cannula to a respirator incorporated into a circuit of a bronchospasm transducer (modified Konzet-Lössler method), arresting the spontaneous respiration of each guinea pig with choline chloride succinate (1 mg/kg i.v.) and then practicing artificial ventilation, and an airway-constriction reaction was determined by using an overflow rate of ventilation as an index. Acetylcholine (20 µg/kg) or histamine (20 µg/kg) was intravenously administered upon elapsed time of 15, 30, 60 and 120 minutes after a test compound (100 mg/2 ml/kg) suspended in 1% CMC was administered through the esophageal cannula, thereby observing the airway-constriction reaction elicited. For the sake of comparison, theophylline (100 mg/2 ml/kg) commonly and widely used in the treatment for asthma was used. The inhibitory effect on the airway-constriction reaction was expressed by a value calculated as an inhibitory rate (%). It turns out that all the compounds according to the present invention have an excellent inhibitory effect on airway constriction.

Row | SMILES | inhibition in vivo at 100 mg/kg
13 | CCC(C)N1CCc2cnc3c(C#N)cnn3c21 (stereo not shown) [Compound 2, 8-sec-butyl-3-cyano-6,7-dihydro-8H-pyrrolo[3,2-e]pyrazolo[1,5-a]pyrimidine] | 52.2%
14 | Cn1c(=O)c2[nH]cnc2n(C)c1=O [Theophylline, theophylline, reference compound] | 37.7%
15 | CC(C)(C)N1CCc2cnc3c(C#N)cnn3c21 [Compound 14, 8-tert-butyl-3-cyano-6,7-dihydro-8H-pyrrolo[3,2-e]pyrazolo[1,5-a]pyrimidine] | 8.7%
16 | N#Cc1cnn2c3c(c(Cl)nc12)CCN3C1CCCC1 [Compound 3, 5-chloro-3-cyano-8-cyclopentyl-6,7-dihydro-8H-pyrrolo[3,2-e]pyrazolo[1,5-a]pyrimidine] | 7.7%
17 | N#Cc1cnn2c3c(cnc12)CCN3C1CCCC1 [Compound 1, 3-cyano-8-cyclopentyl-6,7-dihydro-8H-pyrrolo[3,2-e]pyrazolo[1,5-a]pyrimidine] | 22.2%
18 | CCC(C)N1CCc2c(N)nc3c(C#N)cnn3c21 (stereo not shown) [Compound 7, 5-amino-8-sec-butyl-3-cyano-6,7-dihydro-8H-pyrrolo[3,2-e]pyrazolo[1,5-a]pyrimidine] | 49.8%
19 | CCC(C)N1CCc2c(Cl)nc3c(C#N)cnn3c21 (stereo not shown) [Compound 4, 8-sec-butyl-5-chloro-3-cyano-6,7-dihydro-8H-pyrrolo[3,2-e]pyrazolo[1,5-a]pyrimidine] | 24.7%
20 | N#Cc1cnn2c3c(c(N)nc12)CCN3C1CCCC1 [Compound 5, 5-amino-3-cyano-8-cyclopentyl-6,7-dihydro-8H-pyrrolo[3,2-e]pyrazolo[1,5-a]pyrimidine] | 52.9%
21 | CC(C)(C)N1CCc2c(Cl)nc3c(C#N)cnn3c21 [Compound 15, 8-tert-butyl-5-chloro-3-cyano-6,7-dihydro-8H-pyrrolo[3,2-e]pyrazolo[1,5-a]pyrimidine] | 25.8%

The molecules below were run on airway-constriction reaction (assay: Inhibitory effect on airway-constriction reaction (in vivo), modified Konzet-Lössler method, acetylcholine-elicited). Settings: Cavia porcellus, iv; test compound 100 mg/2 ml/kg in 1% CMC through esophageal cannula; acetylcholine 20 µg/kg i.v. at 15, 30, 60 and 120 minutes; anesthetized guinea pigs; read-out: Inhibitory rate (%) Acetylcholine.
Procedure: as §2

Row | SMILES | inhibition in vivo at 100 mg/kg
22 | CCC(C)N1CCc2cnc3c(C#N)cnn3c21 (stereo not shown) [Compound 2, 8-sec-butyl-3-cyano-6,7-dihydro-8H-pyrrolo[3,2-e]pyrazolo[1,5-a]pyrimidine] | 50%
23 | Cn1c(=O)c2[nH]cnc2n(C)c1=O [Theophylline, theophylline, reference compound] | 39.5%
24 | CC(C)(C)N1CCc2cnc3c(C#N)cnn3c21 [Compound 14, 8-tert-butyl-3-cyano-6,7-dihydro-8H-pyrrolo[3,2-e]pyrazolo[1,5-a]pyrimidine] | 40.4%
25 | N#Cc1cnn2c3c(c(Cl)nc12)CCN3C1CCCC1 [Compound 3, 5-chloro-3-cyano-8-cyclopentyl-6,7-dihydro-8H-pyrrolo[3,2-e]pyrazolo[1,5-a]pyrimidine] | 22.8%
26 | N#Cc1cnn2c3c(cnc12)CCN3C1CCCC1 [Compound 1, 3-cyano-8-cyclopentyl-6,7-dihydro-8H-pyrrolo[3,2-e]pyrazolo[1,5-a]pyrimidine] | 33.4%
27 | CCC(C)N1CCc2c(N)nc3c(C#N)cnn3c21 (stereo not shown) [Compound 7, 5-amino-8-sec-butyl-3-cyano-6,7-dihydro-8H-pyrrolo[3,2-e]pyrazolo[1,5-a]pyrimidine] | 36.5%
28 | CCC(C)N1CCc2c(Cl)nc3c(C#N)cnn3c21 (stereo not shown) [Compound 4, 8-sec-butyl-5-chloro-3-cyano-6,7-dihydro-8H-pyrrolo[3,2-e]pyrazolo[1,5-a]pyrimidine] | 33.2%
29 | N#Cc1cnn2c3c(c(N)nc12)CCN3C1CCCC1 [Compound 5, 5-amino-3-cyano-8-cyclopentyl-6,7-dihydro-8H-pyrrolo[3,2-e]pyrazolo[1,5-a]pyrimidine] | 32.1%
30 | CC(C)(C)N1CCc2c(Cl)nc3c(C#N)cnn3c21 [Compound 15, 8-tert-butyl-5-chloro-3-cyano-6,7-dihydro-8H-pyrrolo[3,2-e]pyrazolo[1,5-a]pyrimidine] | 36.5%

Each molecule was assayed on trachea (assay: Tracheodilative effect (in vitro), Magnus method, enucleated trachea contracted with LTD4). Settings: Cavia porcellus; relaxation of enucleated guinea pig trachea contracted with LTD4 3 x 10^-8 M; read-out: pIC50 value LTD4 (converted).
Procedure: as §1
The pIC50 values of the compounds according to the present invention on contraction by LTD4 (concentration: 3 x 10^-8 M) were determined by using the enucleated trachea in accordance with the Magnus method in the same manner as in Test Example 1. It turns out that the compounds according to the present invention are effective on the contraction by this agent.

Row | SMILES | IC50
31 | CCC(C)N1CCc2c(N)nc3c(C#N)cnn3c21 (stereo not shown) [Compound 7, 5-amino-8-sec-butyl-3-cyano-6,7-dihydro-8H-pyrrolo[3,2-e]pyrazolo[1,5-a]pyrimidine] | 3.72 µM
32 | N#Cc1cnn2c3c(c(N)nc12)CCN3C1CCCC1 [Compound 5, 5-amino-3-cyano-8-cyclopentyl-6,7-dihydro-8H-pyrrolo[3,2-e]pyrazolo[1,5-a]pyrimidine] | 4.07 µM

Further lines, results first:

Row | IC50 | SMILES
33 | 112 µM | Cn1c(=O)c2[nH]cnc2n(C)c1=O [Theophylline, theophylline, reference compound]
34 | 11.2 µM | N#Cc1cnn2c3c(c(N)nc12)CCN3C1CCCCC1 [Compound 6, 5-amino-3-cyano-8-cyclohexyl-6,7-dihydro-8H-pyrrolo[3,2-e]pyrazolo[1,5-a]pyrimidine]
